# From PMC12040169 (PLOS Biology, 2025)
# Assay: in vitro
# Settings: human, hela cells, % viability
row,SMILES,"viability at 28.5 h, 10 µM [%]"
1,O=C(CN1C(=O)C2CCC(c3ccccc3)CC2C1=O)Nc1cccc2ccccc12 (centres unmarked) [CBK268061],86
2,CC1CCN(c2nnnc3c2sc2nc(N4CCOCC4)c4c(c23)CC(C)(C)SC4)CC1 [CBK268062],90.4
3,COc1ccc(NC(=O)CSc2nc(N)n[nH]2)cc1Cl [CBK268065],108
4,O=[N+]([O-])c1ccc(S(=O)(=O)NCCSCc2cccc(Cl)c2)cc1 [CBK268066],107
5,Cc1cccc(NS(=O)(=O)c2ccc(OCC(=O)Nc3ccc4c(c3)OCCO4)cc2)c1 [CBK268068],111
6,CCC1CCCCN1S(=O)(=O)c1ccc(NC(=O)Cn2c(=O)oc3ccccc32)cc1 (centres unmarked) [CBK268069],89.2
7,CNc1ccc(C(O)(C(F)(F)F)C(F)(F)F)cc1C(O)(C(F)(F)F)C(F)(F)F [CBK268070],96.6
8,CN1CCN(c2ccccc2NC(=O)c2ccc3c(c2)OCCO3)CC1 [CBK268072],101
9,O=[N+]([O-])c1ccc(N2CCNCC2)cc1NCc1ccccn1 [CBK268074],122
10,Cc1cc(C(F)(F)F)nc(SCC(=O)N2c3ccccc3Sc3ccccc32)n1 [CBK268078],90.8
11,CN1CCN(C(=O)CN(c2ccccc2)S(=O)(=O)N(C)C)CC1 [CBK268079],86.6
12,CCOc1cc(C)c(C(C)C)cc1S(=O)(=O)NCc1ccccn1 [CBK268080],104
13,O=C(O)c1cc(Nc2nc(N3CCOCC3)nc(N3CCOCC3)n2)ccc1Cl [CBK268081],97.5
14,CCC(CO)NCc1ccc(-c2ccccc2)cc1 (centres unmarked) [CBK268082C],97.6
15,c1cc(-c2nnn[nH]2)ccc1OCc1nnn[nH]1 [CBK268083],93.1
16,Cc1nn2c(CN(C(=O)c3ccccc3)c3ccccc3)nnc2c2ccccc12 [CBK268084],87.7
17,Cc1nnc(SCc2ccc(CSc3nnc(C)c(=O)[nH]3)cc2)[nH]c1=O [CBK268085],86.1
18,Cc1cc(Br)ccc1NC(=O)CSc1nnc(-c2ccccc2O)n1-c1ccccc1 [CBK268086],90.7
19,c1ccc2c(c1)nc1n2CN(Cc2ccc3c(c2)OCO3)CN1 [CBK268087],99.1
20,CCc1ccc(C2=CC(c3cccc(C)c3)n3nnnc3N2)cc1 (centres unmarked) [CBK268095],88.6
21,O=C(CSc1nnc(-c2ccccc2O)n1-c1ccccc1)N1CCc2ccccc21 [CBK268097],100
22,O=C(CSc1nc2ccccc2c2nc3ccccc3n12)Nc1ccc(Cl)cc1F [CBK268098],115

row,SMILES,"viability at 28.5 h, 10 µM [%]"
1,CC(=O)Nc1ccc(S(=O)(=O)NC2(C(F)(F)F)NC(=O)N(C3CCCC3)C2=O)cc1 (centres unmarked) [CBK268100],84.6
2,COc1ccc(S(=O)(=O)N(C)CC(=O)N2CCN(C)CC2)cc1C [CBK268105],100
3,O=C(O)c1ccc(NC(=O)c2cnccn2)cc1 [CBK268110],94
4,Cc1cc(C)nc(NC(=O)C(C)Oc2ccc(Cl)cc2C)n1 (centres unmarked) [CBK268111],94.8
5,Cc1scc(C(=O)NN2CCN(C)CC2)c1-c1ccccc1 [CBK268115],93
6,COC(=O)c1c(NC(=O)c2cc(C)on2)sc(C(=O)Nc2ccc(Cl)cc2)c1C [CBK268116],89.7
7,COc1ccc2c(Cl)c(C(=O)NCCc3ccc(S(N)(=O)=O)cc3)sc2c1 [CBK268120],104
8,COc1cccc(CN2CCN(C(=O)C3(C)CC3(Cl)Cl)CC2)c1 (centres unmarked) [CBK268121],96.7
9,Cc1noc(C)c1C(=O)Nc1ccc(N2CCOCC2)c2nonc12 [CBK268125],94.7
10,S=C(NCCN1CCCCC1)NCC1CCCO1 (centres unmarked) [CBK268129],107
11,Cc1cc(C(=O)NCCc2ccc(S(N)(=O)=O)cc2)no1 [CBK268130],99.3
12,Cc1cc(C(=O)N(Cc2ccccc2)c2ccccc2)no1 [CBK268131],94.2
13,Cc1cc(OCC(=O)NN2CCN(C)CC2)ccc1[N+](=O)[O-] [CBK268136],99.8
14,O=C(O)C1C2CCC(O2)C1C(=O)Nc1ccc(S(=O)(=O)N2CCc3ccccc32)cc1 (centres unmarked) [CBK268137],93.1
15,COc1ccc(C(=O)Nc2ccc(S(=O)(=O)N3CCN(C)CC3)cc2)cc1[N+](=O)[O-] [CBK268140],97
16,Cc1noc(C)c1C(=O)NCCc1ccc(S(N)(=O)=O)cc1 [CBK268143],104
17,CCc1ccc(C(=O)NCCCN2CCOCC2)cc1 [CBK268144],104
18,Cc1cc(C(=O)NCCCn2ccnc2)no1 [CBK268145],103
19,COC(=O)c1sccc1NC(=O)Cc1ccccc1[N+](=O)[O-] [CBK268146],98.7
20,Cc1ccc(OCC(=O)Nc2sc3c(c2C(N)=O)CCCCC3)c([N+](=O)[O-])c1 [CBK268148],101
21,O=C(COc1ccccc1)Nc1ccc(N2CCOCC2)c2nonc12 [CBK268149],87.9
22,CCC(Oc1cc(C)ccc1Cl)C(=O)Nc1sccc1C(N)=O (centres unmarked) [CBK268152],105

row,SMILES,"viability at 28.5 h, 10 µM [%]"
1,Cc1occc1C(=O)NC(C)c1ccc2c(c1)OCO2 (centres unmarked) [CBK268153],105
2,O=C(O)COCC(=O)N1CCN(c2ccccc2Cl)CC1 [CBK268155],108
3,COc1cc(NS(=O)(=O)c2ccc(NC(=O)c3cccnc3)cc2)ncn1 [CBK268156],93
4,Cc1cc(NS(=O)(=O)c2ccc(NC(=S)NC3CCCCC3)cc2)no1 [CBK268157],91.3
5,Cc1onc(-c2ccccc2)c1C(=O)Nc1cccc(S(=O)(=O)N2CCOCC2)c1 [CBK268159],101
6,Cc1cc(NS(=O)(=O)c2ccc(NC(=S)NCC3CCCO3)cc2)no1 (centres unmarked) [CBK268160],101
7,CN1CCN(S(=O)(=O)c2ccc(NC(=O)Cc3ccc([N+](=O)[O-])cc3)cc2)CC1 [CBK268161],121
8,Cc1cc(C(=O)Nc2ccc(S(=O)(=O)Nc3onc(C)c3C)cc2)no1 [CBK268166],95.3
9,NC(=O)c1cc(Cc2ccccc2)sc1NC(=O)c1cccnc1 [CBK268168],96.2
10,S=C(NCCN1CCCCC1)NCc1ccco1 [CBK268171],107
11,O=C(Nc1ccc(S(=O)(=O)NCCc2ccccc2)cc1)c1ccncc1 [CBK268172],90.3
12,O=S(=O)(c1cccc2nsnc12)N1CCN(C2CCCCC2)CC1 [CBK268173],96.9
13,CN1CCN(NC(=O)COc2ccc(Br)cc2Cl)CC1 [CBK268174],92.6
14,COC(=O)c1cc(-c2ccccc2)sc1NC(=O)c1cnccn1 [CBK268175],93.5
15,O=C(O)C1CC=CCC1C(=O)Nc1ccc(S(=O)(=O)N2CCCc3ccccc32)cc1 (centres unmarked) [CBK268179],94.8
16,O=C(NCc1ccco1)c1c(NC(=O)C2CCCO2)sc2c1CCC2 (centres unmarked) [CBK268180],94.4
17,Cc1sc(NC(=O)c2ccc3c(c2)OCCO3)c(C(=O)NCc2cccnc2)c1C [CBK268181],90.8
18,CCOc1cccc(C(=O)NN2CCN(C)CC2)c1 [CBK268184],97.7
19,O=C(Nc1ccc(S(=O)(=O)NCc2ccccc2)cc1)Nc1ccc2c(c1)OCO2 [CBK268186],95.1
20,CS(=O)(=O)N(CC(=O)Nc1ccc(S(=O)(=O)N2CCCCC2)cc1)c1ccc2c(c1)OCO2 [CBK268189],96.4
21,N#Cc1c(C(F)(F)F)cc(-c2ccccc2)nc1SCCC(=O)Nc1ccccc1O [CBK268191],103
22,COc1ccc(C2CC(c3ccccc3)=NN2c2ccc(S(N)(=O)=O)cc2)cc1OC (centres unmarked) [CBK268193],107

row,SMILES,"viability at 28.5 h, 10 µM [%]"
1,NS(=O)(=O)c1ccc(NCc2cc(Cl)ccc2OCc2ccc(F)cc2)cc1 [CBK268196],87.2
2,COc1ccc([N+](=O)[O-])cc1N(CC(=O)Nc1cccc2ccccc12)S(C)(=O)=O [CBK268197],84.2
3,Cc1c(Cl)cccc1NC(=O)CSCc1cc(=O)[nH][nH]1 [CBK268199],98.1
4,Cc1ccc(-c2cc(C(=O)NCCCn3ccnc3)no2)cc1 [CBK268200],102
5,CCn1c(SCC(=O)Nc2ccccc2[N+](=O)[O-])nnc1-c1cc(Br)ccc1O [CBK268201],101
6,NS(=O)(=O)c1ccc(NC(=O)CSc2ccc3ccccc3c2)cc1 [CBK268203],89.8
7,c1csc(-c2nn3c(Cn4nnc5ccccc54)nnc3s2)c1 [CBK268204],87.7
8,COc1cc(NC(=O)Cc2cccc3ccccc23)c(C(=O)O)cc1OC [CBK268206],99.9
9,CN1CCN(CC(=O)Nc2sc3c(c2C(=O)NCc2ccccc2)CCCC3)CC1 [CBK268207],102
10,Cc1cc(NC(=O)c2nn3c(C(F)(F)F)cc(-c4ccccc4)nc3c2Cl)nn1CC(=O)N1CCOCC1 [CBK268209],105
11,Cc1ccc(S(=O)(=O)NCCOc2ccccc2)c(C)c1NS(C)(=O)=O [CBK268210],92.9
12,O=C(CSc1ncn(-c2ccccc2)n1)Nc1ccc2[nH]c(=O)[nH]c2c1 [CBK268212],106
13,Cc1cc2c(N3CCN(Cc4nc5ccccc5[nH]4)CC3)ncnc2s1 [CBK268213C],101
14,Cc1ccc(NS(=O)(=O)c2cc(C(=O)Nc3cccc(N(C)S(C)(=O)=O)c3)ccc2C)c(C)c1 [CBK268220],92.7
15,CCN1CCN(C(=O)CN(c2ccccc2)S(=O)(=O)N(C)C)CC1 [CBK268222],113
16,CCN1CCN(C(=O)c2ccc(C)c(S(=O)(=O)Nc3cccc(C)c3)c2)CC1 [CBK268226],109
17,O=C(Cc1cc(C(=O)O)c2ccccc2n1)Nc1ccccc1 [CBK268227],96.3
18,O=C(Cc1ccc(Br)cc1)Nc1cc(C(=O)O)cc(C(=O)O)c1 [CBK268228],88.8
19,Cc1ccc(Cl)cc1N1CCN(C(=O)COc2ccc(S(=O)(=O)Nc3ccc(F)cc3)cc2)CC1 [CBK268229],92.1
20,COc1ccc(S(=O)(=O)N2CCCC(C(=O)NCc3ccc4c(c3)OCO4)C2)cc1Cl (centres unmarked) [CBK268230],89.1
